What was measured:
BRD9 = molecular target: T1, BRD9 (Homo sapiens, UniProt Q9H8M2); assay: BRD9 HiBiT degradation assay in 293T.166 (HEK293T.166) cells; assay type: cell-based; design: endogenously expressing BRD9 with HiBiT fusion tag via CRISPR; host or cells: HEK293T.166 (293T.166, BRD9-HiBiT HEK293, LgBiT by lentivirus); settings: for DC50: 2.0 hours, read-out: HiBiT-Degradation 293T.166 BRD9 2.0 hours (DC50)
T1 sequence (Q9H8M2 1-597): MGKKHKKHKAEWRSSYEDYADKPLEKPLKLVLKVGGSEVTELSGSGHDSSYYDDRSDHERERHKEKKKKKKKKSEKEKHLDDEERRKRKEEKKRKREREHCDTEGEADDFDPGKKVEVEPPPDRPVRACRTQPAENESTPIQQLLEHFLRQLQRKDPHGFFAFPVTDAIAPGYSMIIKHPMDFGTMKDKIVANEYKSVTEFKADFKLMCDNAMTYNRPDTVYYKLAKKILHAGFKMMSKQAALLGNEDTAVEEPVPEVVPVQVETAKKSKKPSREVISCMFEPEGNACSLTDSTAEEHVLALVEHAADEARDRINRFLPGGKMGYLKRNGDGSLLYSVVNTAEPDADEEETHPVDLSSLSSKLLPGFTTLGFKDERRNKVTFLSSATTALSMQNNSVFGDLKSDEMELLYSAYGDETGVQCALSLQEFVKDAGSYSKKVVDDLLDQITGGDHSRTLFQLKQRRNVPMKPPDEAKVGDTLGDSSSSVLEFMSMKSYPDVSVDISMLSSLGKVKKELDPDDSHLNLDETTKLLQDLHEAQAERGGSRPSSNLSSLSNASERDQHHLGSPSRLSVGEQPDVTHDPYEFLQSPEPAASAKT
Description: Selected compounds were tested in a BRD9 degradation assay using the HiBit Method.
Dulbecco's modified Eagle medium (DMEM) without phenol red and fetal bovine serum (FBS) were purchased from Gibco (Grand Island, NY, USA). Nano-Glo® HiBiT Lytic Assay System was purchased from Promega (Madison, WI, USA). 293T.166 (BRD9-HiBiT) cell line, endogenously expressing BRD9 with HiBiT fusion tag via CRISPR and ectopically expressing LgBiT tag, was purchased from Promega (Madison, WI, USA). 293T.167 (BRD7-HiBiT) cell line, endogenously expressing BRD7 with HiBiT fusion tag via CRISPR and ectopically expressing LgBiT tag, was purchased from Promega (Madison, WI, USA). 293T.92 (BRD4-HiBiT) cell line, endogenously expressing BRD4 with HiBiT fusion tag via CRISPR and ectopically expressing LgBiT tag, was generated in-house. Cell culture flasks and 384-well microplates were acquired from VWR (Radnor, PA, USA).
BRD9 degradation was determined based on quantification of luminescent signal using Nano-Glo® HiBiT Lytic Assay kit. Test compounds were added to the 384-well plate from a top concentration of 10 μM with 11 points, half log titration in duplicates. 293T.166 cells were added into 384-well plates at a cell density of 10,000 cells per well. The plates were kept at 37° C. with 5% CO2 for 2 hours. BRD7 and BRD4 degradation was similarly determined with 293T.167 cells and 293T.92 cells, respectively. The cells treated in the absence of the test compound were the negative control and the cells without Nano-Glo® HiBiT Lytic reagent were the positive control. After 2-hour incubation, Nano-Glo® HiBiT Lytic Assay reagents were added to the cells. Luminescence was acquired on EnVision® Multilabel Reader (Catalog No. 2104-0010, Perkin Elmer Inc., Dumfries, VA, USA).
This assay evaluates the degradation of BRD9 induced by treatment with Compound 1 or Compound 2 as measured by luminescence using Nano-Glo® HiBiT Lytic Assay System in HEK293 cells CRISPR-edited to endogenously express HiBiT tagged BRD9 and exogenously express LgBiT protein.
Nano-Glo® HiBiT Lytic Assay System was purchased from Promega (Catalog No. N3050, Madison, WI, USA). BRD9-HiBiT HEK293 cells were purchased from Promega (Catalog No. CS302348, Madison, WI, USA). The cells were maintained in Dulbecco's modified Eagle medium (DMEM) without phenol red (Catalog No. 12430112, ThermoFisher Scientific, Waltham, MA, USA) supplemented with 10% fetal bovine serum (FBS) (Catalog No. 16000-044, Gibco, Grand Island, NY, USA) at 37° C. in an atmosphere of 5% CO2 in air. The HiBiT polypeptide tag was introduced into the C-terminus of the endogenous BRD9 locus by CRISPR-Cas9 and the LgBiT protein was introduced via Lentiviral infection to produce the modified HEK293T.166 cell line. The HiBiT polypeptide and LgBiT protein allow reconstitution of NanoBiT enzyme in the cells. The Nano-Glo® HiBiT Lytic Substrate was then added and activated by the NanoBiT enzyme following cell lysis to produce a luminescent signal that is directly proportional to the amount of HiBiT-tagged BRD9.
The HEK293T.166 cells were routinely sub-cultured to maintain cell density between 30-80% confluence, not to exceed 20 passages. Cells were washed with PBS pH 7.4 (Catalog No. 10010049, ThermoFisher Scientific, Waltham, MA, USA), trypsinized for 5 minutes at 37° C., and resuspended in fresh growth media without phenol red. An aliquot was diluted 2× with Trypan Blue solution 0.4% (Catalog No. 15250061, ThermoFisher Scientific, Waltham, MA, USA) and cell count determined. Cell concentration was adjusted with growth media without phenol red to 3.3×10^5 cells/mL.
Compound 1 or Compound 2 was prepared by dissolving neat compounds in DMSO (Catalog No. D8418, Sigma-Aldrich, Inc., St. Louis, MO, USA) to generate 10 mM stock solution and stored at −20° C. […]

[1] = Hygroscopicity by DVS at 25° C.; assay type: physicochemical
Description: Hygroscopicity of Form A and Form N was investigated by DVS at 25° C. […] Form A converted to Form K after the DVS test. Form K is a metastable hydrate. It reverted back to Form A after exposure to ambient condition.
Hygroscopicity of the free base Pattern A* and the urea cocrystal Form P were evaluated by DVS at 25° C.

[2] = Solubility study in aqueous media at 37° C.; settings: for Solubility: target 10 mg/5 mL, LOQ: 50 μg/mL
[3] = pH 4.5, 50 mM acetate buffer, 2 h
[4] = pH 4.5, 50 mM acetate buffer, 24 h

COc1cc(-c2cn(C)c(=O)c(C)c2C)cc(OC)c1CN1CC[C@H](N2CCN(c3ccc(N[C@@H]4CCC(=O)NC4=O)cc3F)CC2)C(F)(F)C1 [Compound 2]
% BRD9 Remaining Relative to Vehicle Control at 2 hr, Mean (BRD9; 0.010 nM): 103.0% | % BRD9 Remaining Relative to Vehicle Control at 2 hr, Mean (BRD9; 0.032 nM): 95.9% | % BRD9 Remaining Relative to Vehicle Control at 2 hr, Mean (BRD9; 0.100 nM): 105.0% | % BRD9 Remaining Relative to Vehicle Control at 2 hr, Mean (BRD9; 0.315 nM): 103.3% | % BRD9 Remaining Relative to Vehicle Control at 2 hr, Mean (BRD9; 0.997 nM): 105.4% | % BRD9 Remaining Relative to Vehicle Control at 2 hr, Mean (BRD9; 3.15 nM): 100.2% | % BRD9 Remaining Relative to Vehicle Control at 2 hr, Mean (BRD9; 10.0 nM): 87.1% | % BRD9 Remaining Relative to Vehicle Control at 2 hr, Mean (BRD9; 31.7 nM): 75.4% | % BRD9 Remaining Relative to Vehicle Control at 2 hr, Mean (BRD9; 100 nM): 49.0% | % BRD9 Remaining Relative to Vehicle Control at 2 hr, Mean (BRD9; 316 nM): 33.1% | % BRD9 Remaining Relative to Vehicle Control at 2 hr, Mean (BRD9; 999 nM): 39.0% | DC50 (BRD9; 293T.166 cells): < 100 nM | Emax (BRD9; BRD9-HiBiT, 293T.166 cells, 2 hours, read-out: Mean Emax (%) ± SD): 33.1 ± 9.92% | Dmax (BRD9; HEK293T.166 cells, 2-hour treatment, read-out: maximal degradation of BRD9): ~70%

COc1cc(-c2cn(C)c(=O)c(C)c2C)cc(OC)c1CN1CC[C@@H](N2CCN(c3ccc(N[C@H]4CCC(=O)NC4=O)cc3F)CC2)C(F)(F)C1 [Compound 3]
DC50 (BRD9; 293T.166 cells): < 100 nM

COc1cc(-c2cn(C)c(=O)c(C)c2C)cc(OC)c1CN1CC[C@@H](N2CCN(c3ccc(N[C@@H]4CCC(=O)NC4=O)cc3F)CC2)C(F)(F)C1 [Compound 4]
DC50 (BRD9; 293T.166 cells): < 100 nM

COc1cc(-c2cn(C)c(=O)c(C)c2C)cc(OC)c1CN1CCC(N2CCN(c3ccc(NC4CCC(=O)NC4=O)cc3F)CC2)C(F)(F)C1 (stereo not shown) [Compound 5]
DC50 (BRD9; 293T.166 cells): < 100 nM

COc1cc(-c2cn(C)c(=O)c(C)c2C)cc(OC)c1CN1CC[C@H](N2CCN(c3ccc(N[C@H]4CCC(=O)NC4=O)cc3F)CC2)C(F)(F)C1.NC(N)=O [Urea cocrystal Pattern P]
XRPD after DVS test [1]: No form change | water uptake from 40% RH to 90% RH ([1]; DVS): <90% RH, 1.6% water | water uptake from 40% RH to 95% RH ([1]; DVS): 3.1% water uptake from | 1st desorp. (%) ([1]; DVS, 0% RH): 0.0% | 2nd sorp. (%) ([1]; DVS, 0% RH): 0.0% | 1st desorp. (%) ([1]; DVS, 10% RH): 2.2% | 2nd sorp. (%) ([1]; DVS, 10% RH): 1.2% | 1st desorp. (%) ([1]; DVS, 20% RH): 3.1% | 2nd sorp. (%) ([1]; DVS, 20% RH): 2.8% | 1st desorp. (%) ([1]; DVS, 30% RH): 3.7% | 2nd sorp. (%) ([1]; DVS, 30% RH): 3.3% | 1st desorp. (%) ([1]; DVS, 40% RH): 4.2% | 1st sorp. (%) ([1]; DVS, 40% RH): 4.0% | 2nd desorp. (%) ([1]; DVS, 40% RH): 4.2% | 2nd sorp. (%) ([1]; DVS, 40% RH): 3.7% | 1st desorp. (%) ([1]; DVS, 50% RH): 4.5% | 1st sorp. (%) ([1]; DVS, 50% RH): 4.2% | 2nd desorp. (%) ([1]; DVS, 50% RH): 4.5% | 2nd sorp. (%) ([1]; DVS, 50% RH): 4.1% | 1st desorp. (%) ([1]; DVS, 60% RH): 4.7% | 1st sorp. (%) ([1]; DVS, 60% RH): 4.4% | 2nd desorp. (%) ([1]; DVS, 60% RH): 4.7% | 2nd sorp. (%) ([1]; DVS, 60% RH): 4.4% | 1st desorp. (%) ([1]; DVS, 70% RH): 5.0% | 1st sorp. (%) ([1]; DVS, 70% RH): 4.7% | 2nd desorp. (%) ([1]; DVS, 70% RH): 5.0% | 2nd sorp. (%) ([1]; DVS, 70% RH): 4.8% | 1st desorp. (%) ([1]; DVS, 80% RH): 5.2% | 1st sorp. (%) ([1]; DVS, 80% RH): 5.1% | 2nd desorp. (%) ([1]; DVS, 80% RH): 5.3% | 2nd sorp. (%) ([1]; DVS, 80% RH): 5.1% | 1st desorp. (%) ([1]; DVS, 90% RH): 5.8% | 1st sorp. (%) ([1]; DVS, 90% RH): 5.6% | 2nd desorp. (%) ([1]; DVS, 90% RH): 5.8% | 2nd sorp. (%) ([1]; DVS, 90% RH): 5.6% | 1st desorp. (%) ([1]; DVS, 95% RH): 7.1% | 1st sorp. (%) ([1]; DVS, 95% RH): 7.1% | 2nd desorp. (%) ([1]; DVS, 95% RH): 7.3% | 2nd sorp. (%) ([1]; DVS, 95% RH): 7.3% | pH ([2]; FaSSIF-v1, pH 6.5, 2 h): pH: 6.5 | Solubility ([2]; FaSSIF-v1, pH 6.5, 2 h): <LOQ | pH ([2]; FaSSIF-v1, pH 6.5, 24 h): pH: 6.5 | Solubility ([2]; FaSSIF-v1, pH 6.5, 24 h): <LOQ | pH ([2]; FeSSIF-v1, pH 5.0, 2 h): pH: 5.0 | Solubility ([2]; FeSSIF-v1, pH 5.0, 2 h): 280 µg/mL | pH ([2]; FeSSIF-v1, pH 5.0, 24 h): pH: 4.9 | Solubility ([2]; FeSSIF-v1, pH 5.0, 24 h): 340 µg/mL | pH ([2]; SGF, pH 1.8, 2 h): pH: 2.4 | Solubility ([2]; SGF, pH 1.8, 2 h): >2000 µg/mL | pH ([2]; SGF, pH 1.8, 24 h): pH: 2.4 | Solubility ([2]; SGF, pH 1.8, 24 h): >2000 µg/mL | pH ([2]; pH 1.0 (0.1N HCl), 2 h): pH: 1.0 | Solubility ([2]; pH 1.0 (0.1N HCl), 2 h): >2000 µg/mL | pH ([2]; pH 1.0 (0.1N HCl), 24 h): pH: 1.0 | Solubility ([2]; pH 1.0 (0.1N HCl), 24 h): >2000 µg/mL | pH [2, 3]: pH: 4.6 | Solubility [2, 3]: 240 µg/mL | pH [2, 4]: pH: 4.5 | Solubility [2, 4]: 140 µg/mL

Source: US20240245677A1, “SELECTED COMPOUNDS FOR TARGETED DEGRADATION OF BRD9” (C4 THERAPEUTICS, INC., priority 2021, published 2024)
